In publication doi:10.1101/2025.04.23.650324v1 (biorxiv, 2025):
≈ marks a conversion by molar mass, not a printed value.

Key:
Experiment in all cases: microbe, parasite or virus in culture
[1] = system: Klebsiella pneumoniae Kp10; details: KP10, 18 h, read-out: ENOblock MIC (mg/L)
[2] = system: Klebsiella pneumoniae Kp12; details: KP12, 18 h, read-out: ENOblock MIC (mg/L)
[3] = system: Klebsiella pneumoniae Kp9; details: KP9, 18 h, read-out: ENOblock MIC (mg/L)
[4] = system: Klebsiella pneumoniae Kp15; details: KP15, 18 h, read-out: ENOblock MIC (mg/L)
[5] = system: Klebsiella pneumoniae Kp13; details: KP13, 18 h, read-out: ENOblock MIC (mg/L)
[6] = system: Klebsiella pneumoniae Kp7; details: KP7, 18 h, read-out: ENOblock MIC (mg/L)
[7] = system: Klebsiella pneumoniae Kp8; details: KP8, 18 h, read-out: ENOblock MIC (mg/L)
[8] = system: Klebsiella pneumoniae Kp6; details: KP6, 18 h, read-out: ENOblock MIC (mg/L)
[9] = system: Klebsiella pneumoniae Kp14; details: KP14, 18 h, read-out: ENOblock MIC (mg/L)
[10] = system: Klebsiella pneumoniae Kp11; details: KP11, 18 h, read-out: ENOblock MIC (mg/L)
Escherichia coli CRA57 = details: CRA57, 18 h, read-out: ENOblock MIC (mg/L)
Escherichia coli R6 = details: R6, 18 h, read-out: ENOblock MIC (mg/L)
Escherichia coli CRA20 = details: CRA20, 18 h, read-out: ENOblock MIC (mg/L)
Escherichia coli CRA32 = details: CRA32, 18 h, read-out: ENOblock MIC (mg/L)
Escherichia coli CRA8 = details: CRA8, 18 h, read-out: ENOblock MIC (mg/L)
Escherichia coli R2 = details: R2, 18 h, read-out: ENOblock MIC (mg/L)
Escherichia coli CRA17 = details: CRA17, 18 h, read-out: ENOblock MIC (mg/L)
Escherichia coli CRA5 = details: CRA5, 18 h, read-out: ENOblock MIC (mg/L)
Escherichia coli R5 = details: R5, 18 h, read-out: ENOblock MIC (mg/L)
Escherichia coli CRA7 = details: CRA7, 18 h, read-out: ENOblock MIC (mg/L)
[11] = system: Acinetobacter baumannii #10; details: 18 h, read-out: ENOblock MIC (mg/L)
[12] = system: Acinetobacter baumannii #16; details: 18 h, read-out: ENOblock MIC (mg/L)
[13] = system: Acinetobacter baumannii #19; details: 18 h, read-out: ENOblock MIC (mg/L)
[14] = system: Acinetobacter baumannii #17; details: 18 h, read-out: ENOblock MIC (mg/L)
[15] = system: Acinetobacter baumannii #21; details: 18 h, read-out: ENOblock MIC (mg/L)
[16] = system: Acinetobacter baumannii #22; details: 18 h, read-out: ENOblock MIC (mg/L)
[17] = system: Acinetobacter baumannii #1; details: 18 h, read-out: ENOblock MIC (mg/L)
[18] = system: Acinetobacter baumannii #14; details: 18 h, read-out: ENOblock MIC (mg/L)
[19] = system: Acinetobacter baumannii #20; details: 18 h, read-out: ENOblock MIC (mg/L)
[20] = system: Acinetobacter baumannii #11; details: 18 h, read-out: ENOblock MIC (mg/L)

`NCCOCCOCCNC(=O)Cc1ccc(Nc2nc(NCc3ccc(F)cc3)nc(NCC3CCCCC3)n2)cc1` [ENOblock] showed an MIC [1] of 32 mg/L (≈ 53.8 µM), an MIC [2] of 64 mg/L (≈ 108 µM) and an MIC [3] of 64 mg/L (≈ 108 µM). For the same molecule, the MIC [4] was 64 mg/L (≈ 108 µM), the MIC [5] was 64 mg/L (≈ 108 µM) and the MIC [6] was 16 mg/L (≈ 26.9 µM). It also gave an MIC [7] of 64 mg/L (≈ 108 µM), an MIC [8] of 32 mg/L (≈ 53.8 µM) and an MIC [9] of 64 mg/L (≈ 108 µM). It also gave an MIC [10] of 16 mg/L (≈ 26.9 µM), an MIC (Escherichia coli CRA57) of 16 mg/L (≈ 26.9 µM) and an MIC (Escherichia coli R6) of 16 mg/L (≈ 26.9 µM). The MIC (Escherichia coli CRA20) was 32 mg/L (≈ 53.8 µM), the MIC (Escherichia coli CRA32) was 8 mg/L (≈ 13.5 µM) and the MIC (Escherichia coli CRA8) was 16 mg/L (≈ 26.9 µM). For the same molecule, the MIC (Escherichia coli R2) was 32 mg/L (≈ 53.8 µM), the MIC (Escherichia coli CRA17) was 32 mg/L (≈ 53.8 µM) and the MIC (Escherichia coli CRA5) was 16 mg/L (≈ 26.9 µM). It also gave an MIC (Escherichia coli R5) of 32 mg/L (≈ 53.8 µM), an MIC (Escherichia coli CRA7) of 16 mg/L (≈ 26.9 µM) and an MIC [11] of 16 mg/L (≈ 26.9 µM). The MIC [12] was 16 mg/L (≈ 26.9 µM), the MIC [13] was 32 mg/L (≈ 53.8 µM) and the MIC [14] was 16 mg/L (≈ 26.9 µM). For the same molecule, the MIC [15] was 8 mg/L (≈ 13.5 µM), the MIC [16] was 16 mg/L (≈ 26.9 µM) and the MIC [17] was 16 mg/L (≈ 26.9 µM). For the same molecule, the MIC [18] was 16 mg/L (≈ 26.9 µM), the MIC [19] was 8 mg/L (≈ 13.5 µM) and the MIC [20] was 16 mg/L (≈ 26.9 µM).
